Test [1] deals with T1, Human recombinant PDE10A (hPDE10A) (Homo sapiens, UniProt Q9Y233).
T1 construct: His tag (inferred from metal chelate purification); made in house; host or cells: Sf9 insect cells (baculovirus)
The test is described as follows: In vitro assay PDE10A, human clone (SPA, 3H-cAMP hydrolysis). It is filed as biochemical. Conditions: human clone (h), default. The method, boiled down:
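Human recombinant PDE10A was expressed in Sf9 cells via baculovirus and incubated with compound in 50 mM Tris pH 7.8, 8.3 mM MgCl2, 1.7 mM EGTA. Substrate was 60 nM cAMP plus 0.008 μCi 3H-cAMP for 60 min at room temperature, read by SPA scintillation counting. Controls used 1% DMSO, and blanks omitted enzyme.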

For test [2], the target named is T2, Rat recombinant PDE10A (rPDE10A2) (Rattus norvegicus, UniProt Q9QYJ6).
T2 construct: His tag (inferred from metal chelate purification); made in house; host or cells: Sf9 insect cells (baculovirus)
T2 sequence (Q9QYJ6 1-794): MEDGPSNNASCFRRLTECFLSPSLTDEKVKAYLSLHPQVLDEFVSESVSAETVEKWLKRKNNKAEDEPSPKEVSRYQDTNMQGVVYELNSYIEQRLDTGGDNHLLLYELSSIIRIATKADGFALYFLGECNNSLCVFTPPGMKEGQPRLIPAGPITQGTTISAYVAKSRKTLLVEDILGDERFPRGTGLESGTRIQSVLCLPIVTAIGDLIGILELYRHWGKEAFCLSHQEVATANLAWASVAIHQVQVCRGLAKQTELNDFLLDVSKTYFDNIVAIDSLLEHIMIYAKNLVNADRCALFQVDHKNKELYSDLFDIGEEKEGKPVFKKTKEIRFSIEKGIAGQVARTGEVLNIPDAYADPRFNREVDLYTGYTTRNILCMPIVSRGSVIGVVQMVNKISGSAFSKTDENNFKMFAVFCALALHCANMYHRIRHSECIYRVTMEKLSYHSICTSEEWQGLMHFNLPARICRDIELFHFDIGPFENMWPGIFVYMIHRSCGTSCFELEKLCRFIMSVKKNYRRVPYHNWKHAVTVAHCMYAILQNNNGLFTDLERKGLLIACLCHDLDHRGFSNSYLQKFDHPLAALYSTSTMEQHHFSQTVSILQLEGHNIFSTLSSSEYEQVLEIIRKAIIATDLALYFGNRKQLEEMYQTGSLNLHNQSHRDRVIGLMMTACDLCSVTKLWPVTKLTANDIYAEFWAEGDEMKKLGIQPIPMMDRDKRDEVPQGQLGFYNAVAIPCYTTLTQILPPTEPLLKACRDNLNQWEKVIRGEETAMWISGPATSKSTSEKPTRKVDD
The test is described as follows: In vitro assay PDE10A, rat clone (SPA, 3H-cAMP hydrolysis). It is filed as biochemical. The method, then: Rat recombinant PDE10A (rPDE10A2) was expressed in Sf9 cells using a recombinant rPDE10A baculovirus construct. Cells were harvested after 48 h of infection and the rPDE10A protein was purified by metal chelate chromatography on Ni-sepharose 6FF. Tested compounds were dissolved and diluted in 100% DMSO to a concentration 100 fold of the final concentration in the assay. Human recombinant PDE10A ([…]) was expressed in Sf9 cells using a recombinant hPDE10A baculovirus that was made and amplified in house. Cells were harvested after 72 h of infection and the hPDE10A protein was purified by metal chelate chromatography on Ni-sepharose. Compound dilutions (0.4 μl) were added in 384 well plates to 20 μl of incubation buffer (50 mM Tris pH 7.8, 8.3 mM MgCl2, 1.7 mM EGTA). 10 μl of rPDE10A or hPDE10A enzyme in incubation buffer was added and the reaction was started by addition of 10 μl substrate to a final concentration of 60 nM cAMP and 0.008 μCi ^3H-cAMP. The reaction was incubated for 60 minutes at room temperature. After incubation, the reaction was stopped with 20 μl of stop solution consisting of 17.8 mg/ml PDE SPA (scintillation proximity assay) beads. After sedimentation of the beads during 30 minutes the radioactivity was measured in a Perkin Elmer Topcount scintillation counter and results were expressed as cpm. For blanc values the enzyme was omitted from the reaction and replaced by incubation buffer. Control values were obtained by addition of a final concentration of 1% DMSO instead of compound. A best fit curve is fitted by a minimum sum of squares method to the plot of % of control value subtracted with blanc value versus compound concentration and the half maximal inhibitory concentration (IC50) value is derived from this curve.

Each structure is given as a SMILES string.

T1 sequence (Q9Y233 267-1055): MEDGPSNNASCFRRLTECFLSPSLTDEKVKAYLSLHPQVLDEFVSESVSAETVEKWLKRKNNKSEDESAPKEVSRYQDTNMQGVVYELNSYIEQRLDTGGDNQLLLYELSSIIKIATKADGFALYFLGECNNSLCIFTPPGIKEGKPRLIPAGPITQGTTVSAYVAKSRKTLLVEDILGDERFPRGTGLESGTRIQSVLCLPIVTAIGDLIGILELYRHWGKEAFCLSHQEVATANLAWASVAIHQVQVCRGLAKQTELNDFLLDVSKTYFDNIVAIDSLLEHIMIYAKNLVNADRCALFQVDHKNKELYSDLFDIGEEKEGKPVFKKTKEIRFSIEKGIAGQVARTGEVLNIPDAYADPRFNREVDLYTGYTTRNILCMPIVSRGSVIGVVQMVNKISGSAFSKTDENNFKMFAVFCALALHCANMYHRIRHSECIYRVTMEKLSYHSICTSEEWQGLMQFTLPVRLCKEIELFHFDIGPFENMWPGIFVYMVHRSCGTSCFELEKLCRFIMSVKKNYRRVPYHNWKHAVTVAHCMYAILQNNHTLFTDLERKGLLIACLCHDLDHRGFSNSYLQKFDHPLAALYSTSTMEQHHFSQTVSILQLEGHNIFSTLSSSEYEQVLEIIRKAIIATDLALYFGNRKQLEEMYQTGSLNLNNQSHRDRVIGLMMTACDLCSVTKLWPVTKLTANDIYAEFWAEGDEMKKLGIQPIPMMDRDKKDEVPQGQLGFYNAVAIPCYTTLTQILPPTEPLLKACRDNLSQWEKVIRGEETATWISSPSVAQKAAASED

`C[C@@H]1CCN(C(=O)c2ccc3c(ccn3CCF)c2)C[C@H]1c1cc(C(F)F)nc2ncnn12` [Compound 89]: the Emax in test [1] (read-out: hPDE10A2 Emax) turned out to be 101%; in test [2] (rat clone (r)) it was 98%. For the same molecule, the IC50 in test [1] (read-out: hPDE10A2 pIC50 (converted)) is 20.9 nM; in test [2] (rat clone (r), read-out: rPDE10A2 pIC50 (converted)), 12 nM. Further, the “rPDE10A2 pIC50” value in test [2] (rat clone, indicated as (r)) is listed as 7.92 (r).

One may read the Emax as the greatest response seen or fitted, relative to the assay's reference.
